According to the supplement of paper PMC11061612:

Legend:
Assay in all cases: combination Emax (second highest fraction inhibited in the dose matrix, 72 h); higher = more inhibition; extreme values may be limits of the assay
NCI-H2052 (Mesothelioma) = test system: NCI-H2052 (Mesothelioma)
Summary of the method: (§1)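 Bliss excess equals the observed combination effect minus the expected value EA + EB − EA·EB, where EA and EB are the effects of each agent alone. Combination Emax is the second-highest inhibition within the matrix. Inhibition was scaled from CellTiter-Glo 2.0 luminescence, with 0 set by vehicle wells and 1 by blank wells, after 72 hours of two-drug dosing of cells plated in 1536-well plates.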

[1] = test system: Detroit562 (Head and Neck Carcinoma)
Summary of the method: as §1

[2] = test system: BFTC-909 (Kidney Carcinoma)
Summary of the method: as §1

[3] = test system: NCI-H209 (Small Cell Lung Carcinoma)
Summary of the method: as §1

KS-1 (Glioblastoma) = test system: KS-1 (Glioblastoma)
Summary of the method: as §1

[4] = test system: SAS (Oral Cavity Carcinoma)
Summary of the method: as §1

[5] = test system: L-428 (Hodgkin's Lymphoma)
Summary of the method: as §1

[6] = test system: LS-123 (Colorectal Carcinoma)
Summary of the method: as §1

[7] = test system: OVCAR-5 (Ovarian Carcinoma)
Summary of the method: as §1

[8] = test system: ESS-1 (Other Solid Carcinomas)
Summary of the method: as §1

[9] = test system: WSU-NHL (B-Cell Non-Hodgkin's Lymphoma)
Summary of the method: as §1

[10] = test system: NUGC-4 (Gastric Carcinoma)
Summary of the method: as §1

[11] = test system: HuH-7 (Hepatocellular Carcinoma)
Summary of the method: as §1

MPP-89 (Mesothelioma) = test system: MPP-89 (Mesothelioma)
Summary of the method: as §1

[12] = test system: TGBC1TKB (Biliary Tract Carcinoma)
Summary of the method: as §1

[13] = test system: LNZTA3WT4 (Low Grade Glioma)
Summary of the method: as §1

[14] = test system: SW1573 (Lung Adenocarcinoma)
Summary of the method: as §1

[15] = test system: KYAE-1 (Esophageal Adenocarcinoma)
Summary of the method: as §1

[16] = test system: SW1710 (Bladder Carcinoma)
Summary of the method: as §1

[17] = test system: Hs-746T (Gastric Carcinoma)
Summary of the method: as §1

SMILES	combination Emax (NCI-H2052 (Mesothelioma))	combination Emax [1]	combination Emax [2]	combination Emax [3]	combination Emax (KS-1 (Glioblastoma))	combination Emax [4]	combination Emax [5]	combination Emax [6]	combination Emax [7]	combination Emax [8]	combination Emax [9]	combination Emax [10]	combination Emax [11]	combination Emax (MPP-89 (Mesothelioma))	combination Emax [12]	combination Emax [13]	combination Emax [14]	combination Emax [15]	combination Emax [16]	combination Emax [17]
Cc1cc2ncnn2cc1Nc1ncc2c(n1)n(C1CCOCC1)c(=O)n2C [AZD7648] + C[C@@H]1COCCN1C2=NC(=NC(=C2)C3(CC3)[S@](=N)(=O)C)C4=C5C=CNC5=NC=C4 [AZD6738] (first compound max 10 µM, 7x7, partner max 10 µM)	0.413	0.848	0.835	0.691	0.595	0.856	0.794	0.619	0.757	0.971	1	0.509	0.215	0.564	0.526	0.766	0.229	0.204	0.503	0.677
Cc1cc2ncnn2cc1Nc1ncc2c(n1)n(C1CCOCC1)c(=O)n2C [AZD7648] + O=C(c1cc(Cc2n[nH]c(=O)c3ccccc23)ccc1F)N1CCN(C(=O)C2CC2)CC1 [Olaparib] (first compound max 10 µM, 7x7, partner max 10 µM)	0.308	0.376	0.305	0.917	0.162	0.213	0.172	0.297	0.231	0.402	0.71	0.202	0.198	0.28	0.201	0.0958	0.243	0.0816	0.0781	0.337
Cc1nc(Nc2ncc(C(=O)Nc3c(C)cccc3Cl)s2)cc(N2CCN(CCO)CC2)n1 [Dasatinib] + CC(=O)Nc1cccc(-n2c(=O)n(C3CC3)c(=O)c3c(Nc4ccc(I)cc4F)n(C)c(=O)c(C)c32)c1 [Trametinib] (first compound max 2 µM, 7x7, partner max 1 µM)	0.558	0.862	0.35	0.124	0.641	0.713	0.128	0.928	0.905	0.776	0.962	0.431	0.662	0.851	0.715	0.329	0.18	0.0573	0.77	0.746
COc1cc2ncnc(Nc3ccc(F)c(Cl)c3)c2cc1OCCCN1CCOCC1 [Gefitinib] + CC(C)n1c(=O)n(C)c2cnc3cc(F)c(-c4ccc(OCCCN5CCCCC5)nc4)cc3c21 [AZD1390] (first compound max 10 µM, 7x7, partner max 0.3 µM)	0.137	0.471	0.184	0.384	0.0732	0.401	0.353	0.226	0.203	0.153	0.337	0.481	0.114	0.112	0.263	0.129	0	0.646	0.228	0.0968
COc1cc2c(cc1OCCCCCOc1cc3c(cc1OC)C(=O)N1C=C(C)C[C@H]1C=N3)N=C[C@@H]1CC(C)=CN1C2=O [SG3199] + O=C(c1cc(Cc2n[nH]c(=O)c3ccccc23)ccc1F)N1CCN(C(=O)C2CC2)CC1 [Olaparib] (first compound max 0.001 µM, 7x7, partner max 10 µM)	0.0807	0.175	0.0989	0.913	0.127	0.164	0.0689	0.187	0.0819	0.346	0.763	0.219	0.12	0.0885	0.0857	0.0132	0.102	0.128	0.112	0.292
C[C@@H](c1ccc2nccn2c1)n1nnc2ncc(-c3cnn(C)c3)nc21 [Savolitinib] + CC1(C)CCC(CN2CCN(c3ccc(C(=O)NS(=O)(=O)c4ccc(NCC5CCOCC5)c([N+](=O)[O-])c4)c(Oc4cnc5[nH]ccc5c4)c3)CC2)=C(c2ccc(Cl)cc2)C1 [Venetoclax] (first compound max 1 µM, 7x7, partner max 1 µM)	0.121	0.0649	0.242	0.373	0.152	0.138	0.117	0.148	0.0951	0.136	0.315	0.167	0.15	0.261	0.144	0.162	0.052	0.0925	0.0997	0.664
C[C@@H](c1ccc2nccn2c1)n1nnc2ncc(-c3cnn(C)c3)nc21 [Savolitinib] + Cc1c2c(nn1C)CSCc1cc(n(C)n1)CSc1cc(c3ccccc3c1)OCCCc1c(C(=O)O)n(C)c3c-2c(Cl)ccc13 [AZD5991] (first compound max 1 µM, 7x7, partner max 1 µM)	0.185	0.26	0.179	0.323	0.132	0.151	0.0947	0.211	0.137	0.16	0.743	0.221	0.207	0.237	0.159	0.222	0.133	0.137	0.105	0.652
